The Ki is a measure of affinity in units of concentration, obtained from inhibition or displacement. Read a high Ki as a looser hold on the target. What is called IC50 is the concentration needed to halve the response being measured. A low value points to higher potency.

Common to all, as to type: biochemical
Experiment [1] deals with T1, GALT (Homo sapiens, UniProt P07902).
T1 construct: recombinant, expressed in E. coli HMS174(DE3), Ni-NTA purified; plasmid from earlier work
Briefly: enzyme inhibition assay. To be noted: residual activity, not per cent inhibition; inhibitor 25 µM printed for GAL-012, assumed for analogue; 5 min preincubation. The text has this:
enzyme inhibition assay on GALT

Experiment [2] concerns the target T2, UGP2 (Homo sapiens, UniProt Q16851).
T2 construct: recombinant, expressed in E. coli HMS174(DE3), Ni-NTA purified; plasmid from earlier work
T2 sequence (Q16851 1-508): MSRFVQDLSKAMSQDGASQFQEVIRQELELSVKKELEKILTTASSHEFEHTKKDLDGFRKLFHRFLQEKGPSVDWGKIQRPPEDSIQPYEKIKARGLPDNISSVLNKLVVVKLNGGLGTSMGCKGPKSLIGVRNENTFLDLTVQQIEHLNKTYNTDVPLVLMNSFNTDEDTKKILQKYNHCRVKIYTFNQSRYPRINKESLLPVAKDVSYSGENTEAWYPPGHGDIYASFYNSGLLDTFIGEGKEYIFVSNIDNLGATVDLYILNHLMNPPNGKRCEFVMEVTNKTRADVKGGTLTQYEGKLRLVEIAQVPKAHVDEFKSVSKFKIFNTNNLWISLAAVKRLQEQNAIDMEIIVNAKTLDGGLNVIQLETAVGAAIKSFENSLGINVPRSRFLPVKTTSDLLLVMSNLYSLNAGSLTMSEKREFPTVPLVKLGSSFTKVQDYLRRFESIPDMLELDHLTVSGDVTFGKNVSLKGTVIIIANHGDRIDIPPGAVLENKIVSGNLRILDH
Briefly: enzyme inhibition assay. As to conditions: residual activity, not per cent inhibition; inhibitor 25 µM printed for GAL-012, assumed for analogue; 5 min preincubation. The text has this: enzyme inhibition assay on UGP2

Experiment [3] addresses T1, GALT. Description: initial velocities, Lineweaver-Burk.
Experiment [4] deals with T3, AGX1/UAP1 (Homo sapiens, UniProt Q16222).
T3 construct: full-length, cDNA from HepG2 cells, pET30A(+) in E. coli HMS174(DE3), Ni-NTA purified
Description: enzyme inhibition assay. As to conditions: one value stated for GALT, UGP2 and AGX1/UAP1 together.

In experiment [5] the target is T1, GALT. Description: enzyme inhibition assay. An excerpt: enzyme inhibition assay on GALT | GAL-012, that inhibit a small family of UDP-hexose pyrophosphorylases-galactose pyro-phosphorylase (GALT)
Experiment [6] addresses T2, UGP2. Description: enzyme inhibition assay. An excerpt: enzyme inhibition assay on UGP2 | UDP-glucose pyrophosphorylase (UGP2)

Each structure is given as a SMILES string.

T1 sequence (P07902 whole entry): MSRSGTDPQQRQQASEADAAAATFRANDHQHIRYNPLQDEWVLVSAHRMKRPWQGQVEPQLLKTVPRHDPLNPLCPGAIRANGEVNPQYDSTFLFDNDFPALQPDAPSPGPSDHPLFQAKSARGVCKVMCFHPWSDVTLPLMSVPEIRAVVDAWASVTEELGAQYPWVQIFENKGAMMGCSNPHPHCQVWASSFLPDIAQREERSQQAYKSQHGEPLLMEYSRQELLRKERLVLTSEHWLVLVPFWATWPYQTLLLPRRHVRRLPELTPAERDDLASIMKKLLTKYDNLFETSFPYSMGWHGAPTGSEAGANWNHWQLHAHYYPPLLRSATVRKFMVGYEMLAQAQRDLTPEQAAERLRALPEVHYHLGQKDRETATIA
T3 sequence (Q16222 1-505 isoform Q16222-2): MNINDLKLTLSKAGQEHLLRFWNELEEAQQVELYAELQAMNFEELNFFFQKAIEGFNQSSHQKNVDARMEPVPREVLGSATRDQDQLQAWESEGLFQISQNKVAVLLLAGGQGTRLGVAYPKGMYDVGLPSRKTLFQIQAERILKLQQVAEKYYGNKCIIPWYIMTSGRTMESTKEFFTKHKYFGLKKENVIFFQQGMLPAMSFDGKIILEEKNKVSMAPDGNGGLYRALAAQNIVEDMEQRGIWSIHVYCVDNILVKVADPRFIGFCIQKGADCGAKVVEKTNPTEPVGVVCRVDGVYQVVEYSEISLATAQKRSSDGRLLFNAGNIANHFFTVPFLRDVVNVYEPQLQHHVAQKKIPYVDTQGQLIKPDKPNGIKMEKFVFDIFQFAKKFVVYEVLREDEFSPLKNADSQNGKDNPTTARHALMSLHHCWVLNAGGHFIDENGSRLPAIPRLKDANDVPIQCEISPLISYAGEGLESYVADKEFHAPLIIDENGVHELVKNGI

For `CN(C)/C=C/C(=O)c1ccc2c(c1)C(C)(C)C(=O)N2C` [GAL-012-2], the “Enzyme Inhibitory Activity / GALT” value in experiment [1] is on record as 63.4 ± 2.3%. The “Enzyme Inhibitory Activity / UGP2” value in experiment [2] amounted to 63.8 ± 4%.
Turning to `CN1C(=O)C(C)(C)c2cc(-c3ccnc(N)n3)ccc21` [GAL-012], the Ki in experiment [3] is around 30 µM. Further, the IC50 in experiment [4], in experiment [5] and in experiment [6] was 30 µM in each case.

The record behind these values is article PMC7038226, “Discovery of Novel Inhibitors Targeting Multi-UDP-hexose Pyrophosphorylases as Anticancer Agents” (Molecules, 2020).
